The test system of the assay is mesothelioma and ovarian cancer cell lines. The experiment in a line: Cytotoxicity of MegaFasL as single agent and in combination with cisplatin in vitro. To be noted: compound alone. The format is cell-based. The procedure:
Use of the Fas-mediated apoptosis inducing agents defined above and more particularly hexamers of the soluble fraction of FasL as defined above as an adjuvant with existing chemotherapies is another embodiment of the present invention. […] Actually, the antitumor effectiveness of MegaFasL as single agent and in combination with cisplatin was evaluated first on mesothelioma and ovarian cancer cell lines in vitro.

Regarding `N.N.[Cl][Pt][Cl]` [cisplatin], the cell death result is recorded as “only marginal cell death”.

(Values after patent US20080003226A1, “Method to Reduce Hepatoxicity of Fas-Mediated Apoptosis-Inducing Agents” (APOXIS SA, priority 2004, published 2008).)
